# Source: US20230257347A1 (priority 2020, published 2023)
# pEC50, pIC50: −log10 of the molar value. Where a name gives a salt, the structure may show the parent alone. Read-outs that look alike come from different tables or passages of the source.
# What was measured:
# [1] = molecular target: T1, Insulin Receptor (tyrosine kinase) (INSR) (Homo sapiens, UniProt P06213); assay: KINOMEscan binding assay, INSR
# T1 construct: made in house; host or cells: E. coli BL21-derived host (T7 phage) or HEK-293
# T1 sequence (P06213 28-1382): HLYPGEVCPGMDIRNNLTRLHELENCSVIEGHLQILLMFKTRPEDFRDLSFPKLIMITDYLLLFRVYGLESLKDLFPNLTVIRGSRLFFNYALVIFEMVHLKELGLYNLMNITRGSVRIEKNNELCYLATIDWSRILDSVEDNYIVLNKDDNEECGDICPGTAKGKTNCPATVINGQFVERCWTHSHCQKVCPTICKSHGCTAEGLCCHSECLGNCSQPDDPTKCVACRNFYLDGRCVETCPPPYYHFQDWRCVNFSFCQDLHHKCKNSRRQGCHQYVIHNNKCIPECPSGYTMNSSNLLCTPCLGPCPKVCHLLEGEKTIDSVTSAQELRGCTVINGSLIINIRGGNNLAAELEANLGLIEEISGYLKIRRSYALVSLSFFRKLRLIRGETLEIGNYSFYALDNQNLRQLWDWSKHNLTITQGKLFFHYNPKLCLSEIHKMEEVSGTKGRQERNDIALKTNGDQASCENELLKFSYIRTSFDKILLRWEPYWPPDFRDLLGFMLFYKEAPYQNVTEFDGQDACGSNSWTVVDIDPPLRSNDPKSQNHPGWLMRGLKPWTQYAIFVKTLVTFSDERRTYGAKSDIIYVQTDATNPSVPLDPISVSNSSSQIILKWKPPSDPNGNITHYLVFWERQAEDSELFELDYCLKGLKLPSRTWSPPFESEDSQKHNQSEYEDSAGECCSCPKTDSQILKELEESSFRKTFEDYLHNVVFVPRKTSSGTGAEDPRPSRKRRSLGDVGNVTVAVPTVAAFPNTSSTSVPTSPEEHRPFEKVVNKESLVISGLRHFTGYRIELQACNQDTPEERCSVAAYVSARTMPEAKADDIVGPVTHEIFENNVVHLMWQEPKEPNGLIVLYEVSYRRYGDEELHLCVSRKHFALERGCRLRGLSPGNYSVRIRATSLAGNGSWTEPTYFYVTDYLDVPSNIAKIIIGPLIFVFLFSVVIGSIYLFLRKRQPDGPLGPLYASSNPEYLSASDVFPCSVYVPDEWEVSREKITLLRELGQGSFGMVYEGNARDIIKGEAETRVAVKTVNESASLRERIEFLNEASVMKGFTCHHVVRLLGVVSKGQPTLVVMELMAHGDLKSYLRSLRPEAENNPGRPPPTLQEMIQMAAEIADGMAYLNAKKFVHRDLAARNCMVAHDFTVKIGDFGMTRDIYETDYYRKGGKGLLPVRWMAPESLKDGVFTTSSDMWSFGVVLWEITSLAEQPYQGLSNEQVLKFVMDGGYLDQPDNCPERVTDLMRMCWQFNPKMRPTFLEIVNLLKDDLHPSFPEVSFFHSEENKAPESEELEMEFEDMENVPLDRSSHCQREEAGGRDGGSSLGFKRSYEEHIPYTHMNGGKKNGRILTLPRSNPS
# [2] = molecular target: T2, CGMP-inhibited cyclic nucleotide phosphodiesterase 3A (PDE3A) (Homo sapiens, UniProt Q14432); assay: Enzymatic assay, PDE3A; type: biochemical
# T2 construct: purchased Signal Chem
# T2 sequence (Q14432 whole entry): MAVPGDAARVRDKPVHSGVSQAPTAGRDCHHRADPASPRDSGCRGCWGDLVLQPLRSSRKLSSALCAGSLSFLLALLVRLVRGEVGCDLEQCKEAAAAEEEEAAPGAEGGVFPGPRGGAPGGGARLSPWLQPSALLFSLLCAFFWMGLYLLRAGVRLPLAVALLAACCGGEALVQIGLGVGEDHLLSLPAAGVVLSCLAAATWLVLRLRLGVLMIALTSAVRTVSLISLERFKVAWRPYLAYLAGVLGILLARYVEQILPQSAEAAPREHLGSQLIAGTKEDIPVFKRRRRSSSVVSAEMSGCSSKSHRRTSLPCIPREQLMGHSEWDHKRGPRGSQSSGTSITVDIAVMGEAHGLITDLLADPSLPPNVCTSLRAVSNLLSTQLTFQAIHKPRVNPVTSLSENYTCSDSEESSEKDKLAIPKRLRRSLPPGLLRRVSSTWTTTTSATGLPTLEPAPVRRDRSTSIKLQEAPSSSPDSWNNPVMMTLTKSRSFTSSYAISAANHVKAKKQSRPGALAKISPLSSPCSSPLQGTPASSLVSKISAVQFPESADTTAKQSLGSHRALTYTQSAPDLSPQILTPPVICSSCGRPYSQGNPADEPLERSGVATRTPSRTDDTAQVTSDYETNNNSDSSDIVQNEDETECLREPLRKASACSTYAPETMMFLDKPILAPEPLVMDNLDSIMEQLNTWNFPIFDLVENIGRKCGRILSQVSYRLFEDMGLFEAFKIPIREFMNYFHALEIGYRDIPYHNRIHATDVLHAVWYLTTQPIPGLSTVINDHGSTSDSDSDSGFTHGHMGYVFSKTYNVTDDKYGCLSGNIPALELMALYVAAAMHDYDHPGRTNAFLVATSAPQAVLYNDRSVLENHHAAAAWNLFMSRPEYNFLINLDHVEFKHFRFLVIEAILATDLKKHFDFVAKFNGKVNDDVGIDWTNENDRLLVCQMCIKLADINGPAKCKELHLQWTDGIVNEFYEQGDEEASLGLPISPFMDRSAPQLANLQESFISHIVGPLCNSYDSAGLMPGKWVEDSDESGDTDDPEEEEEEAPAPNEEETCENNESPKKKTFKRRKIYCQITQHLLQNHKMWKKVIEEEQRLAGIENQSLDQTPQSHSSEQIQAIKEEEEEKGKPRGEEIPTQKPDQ
# [3] = molecular target: Opioid Receptor Kappa 1 (OPRK1) (Homo sapiens, UniProt P41145); assay: cAMP assay, OPRK1; type: cell-based
# Chain of Opioid Receptor Kappa 1 (OPRK1) (P41145 whole entry): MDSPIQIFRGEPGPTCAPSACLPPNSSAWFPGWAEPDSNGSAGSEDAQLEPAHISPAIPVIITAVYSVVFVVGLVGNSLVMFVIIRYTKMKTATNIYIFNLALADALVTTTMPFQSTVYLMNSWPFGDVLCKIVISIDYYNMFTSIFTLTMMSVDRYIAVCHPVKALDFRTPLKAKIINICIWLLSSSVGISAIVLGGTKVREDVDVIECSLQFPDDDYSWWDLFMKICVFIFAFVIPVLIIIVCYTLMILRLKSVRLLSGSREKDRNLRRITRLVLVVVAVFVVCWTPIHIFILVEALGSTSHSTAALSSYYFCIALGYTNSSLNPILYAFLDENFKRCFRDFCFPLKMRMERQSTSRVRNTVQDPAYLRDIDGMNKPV
# [4] = molecular target: Cannabinoid Receptor 2 (CNR2) (Homo sapiens, UniProt P34972); assay: cAMP assay, CNR2; type: cell-based
# [5] = molecular target: T3, Acetylcholinesterase (AChE) (Homo sapiens, UniProt P22303); assay: Enzymatic assay, AChE; type: biochemical
# T3 construct: purchased R&D Systems
# [6] = molecular target: T4, Monoamine oxidase type A (MAOA) (Homo sapiens, UniProt P21397); assay: Enzymatic assay, MAOA (kynuramine substrate); type: biochemical
# T4 construct: purchased Sigma
# T4 sequence (P21397 1-527): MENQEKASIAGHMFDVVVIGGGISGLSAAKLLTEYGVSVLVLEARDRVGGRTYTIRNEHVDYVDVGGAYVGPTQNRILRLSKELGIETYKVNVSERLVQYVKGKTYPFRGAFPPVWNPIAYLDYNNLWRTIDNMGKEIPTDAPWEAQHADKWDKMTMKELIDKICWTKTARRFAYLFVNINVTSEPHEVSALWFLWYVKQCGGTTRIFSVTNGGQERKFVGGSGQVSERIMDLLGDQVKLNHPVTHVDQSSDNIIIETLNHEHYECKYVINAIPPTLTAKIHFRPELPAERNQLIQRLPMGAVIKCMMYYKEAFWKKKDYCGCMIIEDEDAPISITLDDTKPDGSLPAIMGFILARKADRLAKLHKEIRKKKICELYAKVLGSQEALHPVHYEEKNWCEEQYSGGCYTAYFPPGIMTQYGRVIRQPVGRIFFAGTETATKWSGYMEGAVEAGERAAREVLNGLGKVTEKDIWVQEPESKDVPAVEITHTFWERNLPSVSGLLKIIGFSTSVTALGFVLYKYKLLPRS
# [7] = molecular target: T5, Nuclear Hormone Glucocorticoid Receptor (GR) (Homo sapiens, UniProt P04150); assay: NHR Protein Interaction assay, GR; type: cell-based
# T5 sequence (P04150 1-777): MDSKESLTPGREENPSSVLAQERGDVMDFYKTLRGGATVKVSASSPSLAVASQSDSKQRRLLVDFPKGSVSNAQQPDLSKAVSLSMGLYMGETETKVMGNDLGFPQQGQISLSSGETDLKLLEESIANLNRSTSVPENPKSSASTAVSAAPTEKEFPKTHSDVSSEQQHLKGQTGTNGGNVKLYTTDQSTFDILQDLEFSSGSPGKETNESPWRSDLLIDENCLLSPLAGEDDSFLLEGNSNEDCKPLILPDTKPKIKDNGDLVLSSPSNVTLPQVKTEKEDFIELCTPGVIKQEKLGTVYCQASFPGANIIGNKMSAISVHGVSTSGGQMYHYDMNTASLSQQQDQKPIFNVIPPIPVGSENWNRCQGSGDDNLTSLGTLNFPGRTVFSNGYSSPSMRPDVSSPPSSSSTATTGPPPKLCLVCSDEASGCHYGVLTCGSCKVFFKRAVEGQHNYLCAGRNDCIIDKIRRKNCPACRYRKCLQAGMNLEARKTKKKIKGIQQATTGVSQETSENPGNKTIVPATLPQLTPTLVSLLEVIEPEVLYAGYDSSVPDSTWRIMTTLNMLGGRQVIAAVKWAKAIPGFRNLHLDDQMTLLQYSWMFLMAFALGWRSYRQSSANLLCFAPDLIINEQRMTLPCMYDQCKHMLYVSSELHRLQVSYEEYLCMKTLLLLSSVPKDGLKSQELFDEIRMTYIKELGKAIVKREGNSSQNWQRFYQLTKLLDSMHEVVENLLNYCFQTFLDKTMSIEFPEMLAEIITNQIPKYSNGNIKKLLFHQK
# [8] = molecular target: T6, Lymphocyte Cell-Specific Protein-Tyrosine Kinase (LCK) (Homo sapiens, UniProt P06239); assay: KINOMEscan binding assay, LCK
# T6 construct: made in house; host or cells: E. coli BL21-derived host (T7 phage) or HEK-293
# Cyclooxygenase 1 (COX1) = molecular target: T7, Cyclooxygenase 1 (COX1) (Homo sapiens, UniProt P23219); assay: Enzymatic assay, COX1; type: biochemical
# T7 construct: purchased BPS Bioscience
# [9] = molecular target: T8, Dopamine transporter (DAT) (Homo sapiens, UniProt Q01959); assay: Monoamine transporter uptake assay (fluorescent substrate), DAT; type: cell-based
# T8 construct: expressed in transfected cells
# [10] = molecular target: T9, Voltage-gated L-type calcium channel (CAV1.2) (Homo sapiens, UniProt Q13936); assay: Ion channel assay, CAV1.2; type: cell-based
# T9 construct: expressed in transfected cells
# T9 sequence (Q13936 whole entry, looked up): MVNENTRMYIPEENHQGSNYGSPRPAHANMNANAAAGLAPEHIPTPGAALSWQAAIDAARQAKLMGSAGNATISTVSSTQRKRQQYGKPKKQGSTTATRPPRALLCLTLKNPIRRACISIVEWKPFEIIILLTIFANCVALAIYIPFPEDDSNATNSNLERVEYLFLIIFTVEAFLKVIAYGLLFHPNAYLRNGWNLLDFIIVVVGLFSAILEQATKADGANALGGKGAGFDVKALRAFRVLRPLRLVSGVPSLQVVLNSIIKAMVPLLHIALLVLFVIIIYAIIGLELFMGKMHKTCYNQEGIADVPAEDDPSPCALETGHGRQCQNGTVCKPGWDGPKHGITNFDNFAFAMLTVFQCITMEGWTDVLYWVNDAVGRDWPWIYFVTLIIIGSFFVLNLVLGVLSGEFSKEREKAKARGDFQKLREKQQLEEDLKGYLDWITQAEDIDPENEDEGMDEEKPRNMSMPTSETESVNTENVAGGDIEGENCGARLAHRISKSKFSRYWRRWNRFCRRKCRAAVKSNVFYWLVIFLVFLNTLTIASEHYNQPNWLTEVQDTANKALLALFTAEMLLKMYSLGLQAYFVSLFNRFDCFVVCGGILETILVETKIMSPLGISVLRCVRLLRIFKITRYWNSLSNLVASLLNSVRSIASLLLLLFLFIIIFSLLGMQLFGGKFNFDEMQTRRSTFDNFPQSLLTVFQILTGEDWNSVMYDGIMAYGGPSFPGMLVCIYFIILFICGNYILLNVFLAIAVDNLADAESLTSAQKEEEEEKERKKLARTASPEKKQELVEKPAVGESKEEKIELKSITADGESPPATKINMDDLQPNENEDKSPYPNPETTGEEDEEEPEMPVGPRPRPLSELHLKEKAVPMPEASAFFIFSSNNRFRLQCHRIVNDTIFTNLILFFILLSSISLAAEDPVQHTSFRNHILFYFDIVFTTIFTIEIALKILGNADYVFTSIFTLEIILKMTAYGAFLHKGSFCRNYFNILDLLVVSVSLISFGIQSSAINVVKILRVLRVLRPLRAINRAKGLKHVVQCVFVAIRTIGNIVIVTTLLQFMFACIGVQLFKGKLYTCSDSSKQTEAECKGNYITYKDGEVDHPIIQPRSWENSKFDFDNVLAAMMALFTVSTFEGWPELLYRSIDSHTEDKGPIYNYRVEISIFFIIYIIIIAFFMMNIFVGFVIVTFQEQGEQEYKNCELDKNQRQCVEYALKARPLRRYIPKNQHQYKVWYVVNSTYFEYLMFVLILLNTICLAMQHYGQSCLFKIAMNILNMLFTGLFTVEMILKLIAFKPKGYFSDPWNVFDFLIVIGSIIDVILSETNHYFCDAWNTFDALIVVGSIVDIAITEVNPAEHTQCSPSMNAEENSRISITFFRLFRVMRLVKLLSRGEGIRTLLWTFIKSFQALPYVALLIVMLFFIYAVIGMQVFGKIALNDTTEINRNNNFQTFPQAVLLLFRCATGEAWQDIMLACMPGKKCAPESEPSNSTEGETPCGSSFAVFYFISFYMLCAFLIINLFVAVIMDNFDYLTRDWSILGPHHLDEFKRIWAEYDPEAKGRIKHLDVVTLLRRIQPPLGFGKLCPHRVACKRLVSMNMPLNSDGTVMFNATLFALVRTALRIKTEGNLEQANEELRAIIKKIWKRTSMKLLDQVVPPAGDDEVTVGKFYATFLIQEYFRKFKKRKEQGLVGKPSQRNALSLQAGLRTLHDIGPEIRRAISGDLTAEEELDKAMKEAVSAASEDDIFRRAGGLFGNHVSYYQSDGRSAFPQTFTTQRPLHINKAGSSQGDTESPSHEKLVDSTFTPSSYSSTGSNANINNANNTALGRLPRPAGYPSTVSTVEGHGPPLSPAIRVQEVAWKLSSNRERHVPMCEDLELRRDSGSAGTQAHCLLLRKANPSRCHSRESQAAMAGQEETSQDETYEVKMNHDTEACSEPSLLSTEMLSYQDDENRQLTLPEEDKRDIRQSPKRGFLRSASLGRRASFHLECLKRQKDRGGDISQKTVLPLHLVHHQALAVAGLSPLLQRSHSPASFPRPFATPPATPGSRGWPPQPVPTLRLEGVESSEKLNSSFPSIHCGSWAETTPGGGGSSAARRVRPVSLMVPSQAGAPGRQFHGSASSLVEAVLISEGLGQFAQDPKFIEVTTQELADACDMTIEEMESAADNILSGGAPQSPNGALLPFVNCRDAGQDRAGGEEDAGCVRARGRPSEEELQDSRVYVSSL
# [11] = molecular target: T10, N-methyl-D-aspartate (NMDA) Glutamate Receptor 1A/2B (NMDAR (1A/2B)) (Homo sapiens, UniProt Q05586+Q13224); assay: Ion channel assay, NMDAR (1A/2B); type: cell-based
# T10 construct: expressed in transfected cells
# [12] = molecular target: Dopamine Receptor D1 (DRD1) (Homo sapiens, UniProt P21728); assay: cAMP assay, DRD1; type: cell-based
# [13] = molecular target: T11, Cholecystokinin Receptor A (CCKAR) (Homo sapiens, UniProt P32238); assay: Calcium flux assay, CCKAR; type: cell-based
# T11 sequence (P32238 1-428): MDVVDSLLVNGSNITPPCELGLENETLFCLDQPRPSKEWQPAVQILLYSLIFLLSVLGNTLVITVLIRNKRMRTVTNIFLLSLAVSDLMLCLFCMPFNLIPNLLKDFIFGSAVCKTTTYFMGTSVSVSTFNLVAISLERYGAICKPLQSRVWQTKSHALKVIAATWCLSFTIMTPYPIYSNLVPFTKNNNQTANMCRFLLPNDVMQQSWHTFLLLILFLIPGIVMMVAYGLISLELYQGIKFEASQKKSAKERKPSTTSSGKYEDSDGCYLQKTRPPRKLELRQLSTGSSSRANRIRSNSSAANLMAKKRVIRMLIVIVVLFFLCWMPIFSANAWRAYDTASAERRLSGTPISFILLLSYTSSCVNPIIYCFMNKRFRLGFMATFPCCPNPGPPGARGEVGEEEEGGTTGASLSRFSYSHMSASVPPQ
# [14] = read-out: MAOA IC50, Table 10, Source: Original data
SMILES,pIC50 [1],pIC50 [2],pEC50 [3],pIC50 [3],pEC50 [4],pIC50 [4],pIC50 [5],pIC50 [6],"pIC50 [6, 14]",pEC50 [7],pIC50 [7],pIC50 [8],pIC50 (Cyclooxygenase 1 (COX1)),pIC50 [9],pIC50 [10],pEC50 [11],pIC50 [11],pEC50 [12],pIC50 [12],pEC50 [13],also measured
"CNC(C)C(=O)c1c[nH]c2ccc(Br)cc12 (stereo not shown) [BK-5Br-NM-AMT, 1-(5-bromo-1H-indol-3-yl)-2-(methylamino) propan-1-one hydrochloride]",< 5.00,< 5.00,< 5.00,< 5.00,< 5.00,< 5.00,< 5.00,< 5.00,< 5.00,< 5.00,< 5.00,< 5.00,< 5.00,5.37,< 5.00,< 5.00,< 5.00,< 5.00,5.01,< 5.00,pIC50 [13]: < 5.00
"CNC(C)C(=O)c1c[nH]c2ccc(Cl)cc12 (stereo not shown) [BK-5Cl-NM-AMT, 1-(5-chloro-1H-indol-3-yl)-2-(methylamino) propan-1-one hydrochloride]",< 5.00,< 5.00,< 5.00,< 5.00,< 5.00,< 5.00,< 5.00,< 5.00,< 5.00,< 5.00,< 5.00,< 5.00,< 5.00,5.22,< 5.00,< 5.00,< 5.00,< 5.00,< 5.00,< 5.00,pIC50 [13]: < 5.00
"CNC(C)C(=O)c1c[nH]c2ccc(F)cc12 (stereo not shown) [BK-5F-NM-AMT, 1-(5-Fluoro-1H-indol-3-yl)-2-(methylamino) propan-1-one hydrochloride]",< 5.00,< 5.00,< 5.00,< 5.00,< 5.00,< 5.00,< 5.00,< 5.00,< 5.00,< 5.00,< 5.00,< 5.00,< 5.00,< 5.00,< 5.00,< 5.00,< 5.00,< 5.00,< 5.00,< 5.00,"MAOA inhibition (MAOI or not, in words) ([6]; original data): is not an MAOI; pIC50 [13]: < 5.00"
